Source: patent US20120208873A1, “TEA POLYPHENOLS PRODUCTS FOR CEASING SMOKING AND TREATING AND/OR PREVENTING NICOTINE OR NICOTINE-DERIVED COMPOUNDS OR ESTROGEN INDUCED BREAST CANCER” (priority 2011, published 2012)

Experiments:
Assay type in all cases: cell-based, human
α9-nAChR promoter = α9-nAChR promoter luciferase activity assay in MCF-7 cells; conditions: EGCG 10 μM 24 h pretreatment, then Nic or E2 24 h
Procedure: All α9-nAChR promoter—luciferase gene fusions were made in the pGL3-Basic vector (Promega, Madison, Wis., USA) by introducing the appropriate α9-nAChR promoter fragments into the polylinker upstream of the luciferase gene. These fragments were generated with restriction enzymes and cloned directly into pGL3-Basic or subcloned first in pBluescript and then transferred to pGL3-Basic. Deletion analysis of the most promoter-proximal region was performed by generating either appropriate restriction enzyme fragments or PCR fragments with suitable sense oligonucleotides and an antisense primer (5′-[…]-3′ (SEQ ID NO:1)) that anneals to the pGL3-Basic vector downstream of the site of transcription initiation.
MCF-7 cells were plated in 6-well plates. Cells were transiently cotransfected the next day with 1.5 μg of PGL3-Basic plasmid containing the full-length α9-nAChR promoter and 0.1 μg of the RLTK plasmid (Promega) using an MP-100 microporator (Digital Bio), according to the manufacturer's instructions. After incubation for 24 h, the medium was changed to culture medium containing 10% FBS or 0.1% FB S with or without Nic. Cells were lysed 24 h later with 1× Reporter Lysis Buffer (Promega) and stored frozen at −20° C. overnight. Luciferase activity was determined by testing 50 μL of the cell lysate and 50 μL of the Luciferase Assay Reagent (Promega) using a HIDEX Chameleon Microplate Reader. Relative luciferase units were normalized to renilla luciferase from the same cell lysates. Each luciferase assay experiment was performed three times.

MCF-10A cells = test: Cell proliferation (MTT assay) in normal MCF-10A cells; conditions: Nic 10 μM or EGCG 10-25 μM
Procedure: Human mammary gland epithelial adenocarcinomas (MCF7, MDA-MB-231, AU-565, MDA-MB-453, and BT-483) and normal human mammary gland epithelial fibrocystic cell lines (MCF-10A and HBL-100) were purchased from ATCC (American Type Culture Collection, Manassas, Va., USA). MCF-7, MDA-MB-231, and MDA-MB-453 cells were maintained in DMEM, whereas BT-483 cells were maintained in RPMI-1640. Cell growth, proliferation, and viability were determined by the 3-(4,5-dimethylthiazol-2-yl)-2,5-diphenyltetrazolium (MTT) assay. The formazan product was measured by absorbance at 540 nm.

MCF-7 cells = test: Soft agar cloning assay (colony formation) of MCF-7 cells; conditions: EGCG 10 μM, Nic 10 μM
Procedure: The base layer consisted of 0.9% low gelling point SeaPlaque agarose (Sigma, St. Louis, Mo., USA) in culture medium (Shih, Y. L., Liu, H. C., Chen, C. S., Hsu, C. H. et al., J. Agric. Food Chem. 2010, 58, 235-241). Soft agar, consisting of 0.4% SeaPlaque agarose in culture medium, was mixed with 1×10^4 MCF-7 cells and plated on top of the base layer in 60-mm diameter culture dishes. Soft agar cultures were maintained at 37° C. and counted for the appearance of colonies with a Leica DMI 4000B Microscope Imaging System (Leica Microsystems, Wetzlar, Germany).

p-AKT (Ser^473) = test: phosphorylated AKT by immunoblotting in MCF-7 cells; conditions: EGCG 10 μM 24 h pretreatment, then Nic 10 μM or E2 10 nM 24 h
Procedure: To prepare protein samples, cells were washed once with ice-cold PBS and lysed on ice in cell lysis buffer (50 mM Tris-HCl, pH 8.0, 120 mM […], 0.5% Nonidet P-40, 100 mM sodium fluoride, and 200 μM sodium orthovanadate) containing protease inhibitors as described previously (Shih, Y. L., Liu, H. C., Chen, C. S., Hsu, C. H. et al., J. Agric. Food Chem. 2010, 58, 235-241). Protein (50 μg) from each sample was resolved by 12% SDS-polyacrylamide gel electrophoresis, transferred, and analyzed by Western blotting. Antibodies were purchased from the following vendors: anti-total AKT and protein A/G agarose beads were obtained from Santa Cruz Biotechnology (Santa Cruz, Calif., USA); anti-GAPDH and anti-α9-nAChR antibodies were from Abcam (Cambridge, UK); antiphospho AKT (Ser^473), anti-c-Jun, and anti-c-Fos were from Cell Signaling Technology (Beverly, Mass., USA). The secondary antibodies, alkaline phosphatase-coupled anti-mouse, and anti-rabbit IgG were purchased from Santa Cruz Biotechnology. The specific protein complexes were identified with the chromogenic substrates nitro blue tetrazolium, and 5-bromo-4-chloro-3-indolyl-phosphate from KPL (Gaithersburg, Md., USA). In each experiment, proteins were also probed with anti-GAPDH antibodies as a protein-loading control.

`O=C(O[C@@H]1Cc2c(O)cc(O)cc2O[C@@H]1c1cc(O)c(O)c(O)c1)c1cc(O)c(O)c(O)c1` [EGCG, (−)-epigallocatechin-3-gallate] was tested, and the “Nic- and E2-induced α9-nAChR promoter luciferase activity” value (α9-nAChR promoter) was “significantly reduces”, the “cell number in normal breast epithelial cells” value (MCF-10A cells) was “no changes” and the “colony formation in α9-nAChR (Si) cells compared with (Sc) cells” value (MCF-7 cells) was “profoundly inhibited”. For the same compound, the “formation of transformed colonies compared with Nic-treated cells” value (MCF-7 cells; MCF-7) was “significantly inhibits” and the “pAKT protein expression induced by either E2 or Nic” value (p-AKT (Ser^473)) was “significantly inhibited”.
